{
  "source": "patent EP0194571A1",
  "about": "“Heterocyclic disulfides, process for their preparation and pharmaceutical preparations containing them” (HOECHST AKTIENGESELLSCHAFT, priority 1985, dated 1986)",
  "key": {"[1]": {"system": "Candida albicans", "experiment": "Resistance against Candida albicans infection, prophylactic treatment, survival time", "type": "in vivo, Balb/c-Mäuse", "conditions": "2 x 60 mg/kg/Tag intraperitoneal over 4 days, i.v. infection 24 h later with 5 x 10^5 CFU/Maus, control 9,7 Tagen", "protocol": "Balb/c-Mäuse wurden über 4 Tage in einer Dosierung von 2 x 60 mg/kg/Tag intraperitoneal mit der Prüfsubstanz (Verbindung nach Ausführungsbeispiel 8) behandelt. 24 Stunden nach der letzten Gabe der Prüfsubstanz werden diese Tiere und die Kontrolltiere, denen physiologische Kochsalzlösung in gleichen Volumina und Zeitabständen verabreicht worden war, mit Candida albicans intravenös infiziert (5 x 10^5 CFU/Maus). Aus der Absterberate nach der Infektion lassen sich entsprechend die mittleren Überlebenszeiten berechnen. Die Tiere der Kontrollgruppe sterben zu 50 % nach 9,7 Tagen, die mit der Prüfsubstanz behandelte Gruppe zeigte eine mittlere Überlebenszeit von 16,1 Tagen. In dem gewählten Applikationsschema mit den entsprechenden Dosierungen (prophylaktische Verabreichung) induziert die Prüfsubstanz eine signifikante Erhöhung der Resistenz der Balb/c-Maus gegen Candida albicans.\nWie in Experiment 3a beschrieben, wurden Balb/c-Mäuse mit den erfindungsgemäßen Verbindungen behandelt.\nWie Tabelle 9 zeigt, steigt die mittlere Überlebenszeit der Mäuse nach C. albicans Infektion, verglichen mit einer unbehandelten Kontrollgruppe, signifikant an."}, "[2]": {"system": "zelluläre Immunantwort (DTH-Reaktion) gegen Schafserythrozyten", "experiment": "Delayed type hypersensitivity (DTH) reaction against sheep erythrocytes, foot swelling in mice", "type": "in vivo, NMRI-Mäuse", "conditions": "relative to maximal activation by compound of Beispiel 8 = 100 %; Dosis 100 mg/kg, 1 x i.p. Tag 0"}, "[3]": {"system": "Maus-Peritonealmakrophagen", "experiment": "Activation of mononuclear phagocytes: release of lysosomal hydrolases (exocytosis) by peritoneal macrophages from treated mice", "type": "in vivo, NMRI-Mäuse", "conditions": "for N-Ac-Glu: N-Acetyl-ß-D-Glucosaminidase in culture supernatant; for ß-Gal: ß-Galactosidase in culture supernatant; for ß-Glu: ß-Glucuronidase in culture supernatant", "protocol": "(§1) Hier wurde der Einfluß der nach Ausführungsbeispiel 8 erhaltenen Prüfsubstanz auf die Stimulation von Peritonealmakrophagen bei 6- 8 Wochen alten NMRI-Mäusen untersucht. Mäuseweibchen erhielten auf parenteralem oder oralem Wege die Prüfsubstanz in einer Dosis von 25 mg/kg, 50 mg/kg, 100 mg/kg und 200 mg/kg. Der Kontrollgruppe wurde gepufferte Kochsalzlösung verabreicht. Drei Tage nach den Injektionen wurden die Mäuse getötet, und es wurden die Peritonealmakrophagen der Tiere auf ihren Aktivierungszustand hin untersucht. Als Maß der Makrophagenaktivierung wurde zum einen die Sekretion der lyosomalen Enzyme (ß-Galactosidase, ß-Glucuronidase, N-Acetyl-ß-D-Glucosaminidase) bestimmt. Auf der anderen Seite konnte in vergleichbaren Makrophagenkulturen die Pinozytose durch die Aufnahme von kolloidalem Gold (^19^8Au) - wie sie dem Fachmann bekannt ist - untersucht werden. Die Höhe des oxidativen Stoffwechsels bei Makrophagen gilt als ein weiteres Maß für ihren Aktivierungszustand. Gemessen wird diese Aktivität unter Zuhilfenahme des Biolumaten durch Bestimmung der Chemolumineszenz.\n(§2) Zu diesem Zweck wurden entweder in Petrischalen von 30 mm Durchmesser 3 x 10^6 Makrophagen mit 1 ml TC 199-Kulturmedium oder aber 10^6 Makrophagen mit 100 µl in Rundbogen-Polyäthylen-Röhrchen (zur Bestimmung der Chemolumineszenz) bei 5 % G02 und 37°C kultiviert.\n(§3) Nach einstündiger Bebrütung wurden die Kulturen gewaschen, um schwimmende Zellen zu entfernen. Die Chemolumineszenz (Röhrchenkultur) wurde dann direkt bestimmt, während die Petrischalen erneut 24 Stunden bei 37°C bebrütet wurden und danach die Enzym- und Pinozytoseaktivität in den Kulturen bestimmt wurde. Es wurden die nachstehenden Ergebnisse erzielt.\nAus der Tabelle 3 ist zu entnehmen, daß Makrophagen von Kontrollmäusen nur geringe Mengen an lysosomalen Enzymen (ß-Glucuronidase, ß-Galactosidase, N-Acetyl-ß-D-Glucosaminidase) in den Kulturüberstand abgeben. Mononukleare Phagozyten von Mäusen, die parenteral oder oral mit der Prüfsubstanz 72 Stunden behandelt wurde, sezernieren die o.a. sauren Hydrolasen (ß-Glu, ß-Gal, N-Ac-Glu) deutlich mehr und weisen damit eine Dosiswirkungskurve auf, die bei allen gemessenen Enzymen eine Überlegenheit gegenüber den Kontrollen erkennen läßt. Es ist ersichtlich, daß die Prüfsubstanz eine stimulierende Wirkung auf die Makrophagenaktivität besitzt und zur Erhöhung der Enzymfreisetzung beiträgt.\n(§4) Wie im Experiment 2 beschrieben, wurden NMRI-Mäuse mit den erfindungsgemäßen Verbindungen behandelt.\n(§5) Als Test zur Erfassung der Immunstimulation wurde die Funktion der Makrophagen (Chemolumineszenz und Enzymaktivität) überprüft.\n(§6) Tabelle 8 zeigt die relative Wirksamkeit der Prüfsubstanzen bezogen auf die Verbindung aus Beispiel 8, deren maximale Aktivierung (Differenz zwischen Kontrolle und Stimulation) 100 % entspricht. Der Tabelle ist zu entnehmen, daß im Vergleich zu Makrophagen aus unbehandelten Tieren, diese Zellen auch durch alle Prüfsubstanzen in ihrer Chemolumineszenzreaktion stark stimuliert und in ihrem Gehalt an lysosomalen Enzymen deutlich erhöht waren."}, "[4]": {"system": "B16-Melanom", "experiment": "Tumour defence against B16 melanoma (lung metastases after removal of primary tumour), survival time", "type": "in vivo, C57B1/6 Mäusen", "conditions": "control 26 Tagen", "protocol": "Bei weiblichen C57B1/6 Mäusen (10 Tiere/Gruppe) mit einem Gewicht von 18 - 20 g wurde mit 2 x 10^5 lebenden B16-Melanomzellen ein Primärtumorwachstum induziert. Nach Ausprägung einer bestimmten Tumorgröße (0.65 cm im Durchmesser) wurde der Primärtumor entfernt. Die unbehandelten Tiere starben dann an Metastasen in der Lunge. Nach der Tumorinduktion wurden die Tiere an den Tagen 3, 5, 7, 9, 11, und 13 nach Amputation des Primärtumors mit 50, 100 und 200 mg/kg der nach Beispiel 8 erhaltenen Prüfsubstanz intraperitoneal behandelt. Aus der Absterberate nach Amputation des Primärtumors durch die Entwicklung von Lungenmetastasen lassen sich entsprechend die mittleren ffberlebenszeiten berechnen. Danach sterben die Tiere der Kontrollgruppe zu 50 % nach 26 Tagen. Die mit der Prüfsubstanz behandelten Gruppen zeigten (vgl. Tabelle 10) mit den entsprechenden Dosierungen eine signifikante Erhöhung der mittleren Überlebenszeit auf 43, 40 und 35 Lage."}, "[5]": {"system": "Maus-Peritonealmakrophagen", "experiment": "Activation of mononuclear phagocytes: oxidative metabolism (chemiluminescence) of peritoneal macrophages from treated mice", "type": "in vivo, NMRI-Mäuse", "conditions": "relative to maximal activation by compound of Beispiel 8 = 100 %; 100 mg/kg i.p.", "protocol": "as §1, §2, §3\nDie parenterale sowie die orale Behandlung von NMRI-Mäusen mit der gemäß Beispiel 8 hergestellten Prüfsubstanz stimuliert die Makrophagenaktivität und hat damit eine immunitätstimulierende Wirkung. So wird der oxidative Stoffwechsel bei Makrophagen mit der Generierung von Sauerstoffradikalen und dem damit verbundenen meßbaren Licht deutlich erhöht. Bei Dosierungen von 25 mg/kg aufwärts kommt es zu einer dosisabhänigen Steigerung der Makrophagenaktivität sowohl bei parenteraler als auch oraler Applikation.\nas §4, §5, §6"}},
  "data": [
    {"smiles": "Cc1nc(SSc2nc(C)c(CC(=O)O)s2)sc1CC(=O)O", "note": "[Beispiel 8, Bis-(5-Carboxymethyl-4-methyl-thiazol-2-yl)-disulfid]", "values": [
      {"measurement": "mittlere Überlebenszeit", "setting": "[1]", "value": "16,1 Tagen"},
      {"measurement": "DTH-Reaktion (SRBC)", "setting": "[2]", "value": 100, "unit": "%"},
      {"measurement": "N-Ac-Glu", "setting": "[3]; 1 x 25 mg/kg i.p.", "value": 2786, "unit": "mU/ml"},
      {"measurement": "N-Ac-Glu", "setting": "[3]; 1 x 25 mg/kg p.o.", "value": 1947, "unit": "mU/ml"},
      {"measurement": "N-Ac-Glu", "setting": "[3]; 1 x 50 mg/kg i.p.", "value": 3315, "unit": "mU/ml"},
      {"measurement": "N-Ac-Glu", "setting": "[3]; 1 x 50 mg/kg p.o.", "value": 2862, "unit": "mU/ml"},
      {"measurement": "N-Ac-Glu", "setting": "[3]; 1 x 100 mg/kg i.p.", "value": 4305, "unit": "mU/ml"},
      {"measurement": "N-Ac-Glu", "setting": "[3]; 1 x 100 mg/kg p.o.", "value": 3676, "unit": "mU/ml"},
      {"measurement": "N-Ac-Glu", "setting": "[3]; 1 x 200 mg/kg i.p.", "value": 6548, "unit": "mU/ml"},
      {"measurement": "N-Ac-Glu", "setting": "[3]; 1 x 200 mg/kg p.o.", "value": 5621, "unit": "mU/ml"},
      {"measurement": "Makrophagenaktivität Exozytose", "setting": "[3]; lysosomal enzyme activity, relative to maximal activation by compound of Beispiel 8 = 100 %, 100 mg/kg i.p.", "value": 100, "unit": "%"},
      {"measurement": "ß-Gal", "setting": "[3]; 1 x 25 mg/kg i.p.", "value": 2584, "unit": "mU/ml"},
      {"measurement": "ß-Gal", "setting": "[3]; 1 x 25 mg/kg p.o.", "value": 4917, "unit": "mU/ml"},
      {"measurement": "ß-Gal", "setting": "[3]; 1 x 50 mg/kg i.p.", "value": 11058, "unit": "mU/ml"},
      {"measurement": "ß-Gal", "setting": "[3]; 1 x 50 mg/kg p.o.", "value": 9179, "unit": "mU/ml"},
      {"measurement": "ß-Gal", "setting": "[3]; 1 x 100 mg/kg i.p.", "value": 17596, "unit": "mU/ml"},
      {"measurement": "ß-Gal", "setting": "[3]; 1 x 100 mg/kg p.o.", "value": 13195, "unit": "mU/ml"},
      {"measurement": "ß-Gal", "setting": "[3]; 1 x 200 mg/kg i.p.", "value": 22351, "unit": "mU/ml"},
      {"measurement": "ß-Gal", "setting": "[3]; 1 x 200 mg/kg p.o.", "value": 17357, "unit": "mU/ml"},
      {"measurement": "ß-Glu", "setting": "[3]; 1 x 25 mg/kg i.p.", "value": 1001, "unit": "mU/ml"},
      {"measurement": "ß-Glu", "setting": "[3]; 1 x 25 mg/kg p.o.", "value": 897, "unit": "mU/ml"},
      {"measurement": "ß-Glu", "setting": "[3]; 1 x 50 mg/kg i.p.", "value": 1370, "unit": "mU/ml"},
      {"measurement": "ß-Glu", "setting": "[3]; 1 x 50 mg/kg p.o.", "value": 1133, "unit": "mU/ml"},
      {"measurement": "ß-Glu", "setting": "[3]; 1 x 100 mg/kg i.p.", "value": 1791, "unit": "mU/ml"},
      {"measurement": "ß-Glu", "setting": "[3]; 1 x 100 mg/kg p.o.", "value": 1593, "unit": "mU/ml"},
      {"measurement": "ß-Glu", "setting": "[3]; 1 x 200 mg/kg i.p.", "value": 2136, "unit": "mU/ml"},
      {"measurement": "ß-Glu", "setting": "[3]; 1 x 200 mg/kg p.o.", "value": 1886, "unit": "mU/ml"},
      {"measurement": "mittlere Überlebenszeit", "setting": "[4]; 50 mg/kg intraperitoneal on days 3, 5, 7, 9, 11, 13 after amputation of primary tumour", "value": 43, "unit": "days"},
      {"measurement": "mittlere Überlebenszeit", "setting": "[4]; 100 mg/kg intraperitoneal on days 3, 5, 7, 9, 11, 13 after amputation of primary tumour", "value": 40, "unit": "days"},
      {"measurement": "mittlere Überlebenszeit", "setting": "[4]; 200 mg/kg intraperitoneal on days 3, 5, 7, 9, 11, 13 after amputation of primary tumour", "value": 35, "unit": "days"},
      {"measurement": "Makrophagenaktivität Chemolumineszenz", "setting": "[5]", "value": 100, "unit": "%"}
    ]}
  ]
}
